Data on 19 compounds can be found in US20230082430A1 (C4 Therapeutics, Inc., priority 2019, published 2023).

Structures can show the parent of a compound that is named as a salt.

This assay relates to NCIH929.1 cells. Briefly: Cell viability assay for Table 2 (CellTiter-Glo 2.0, ATP quantification, 96 hr). Particulars: 96 h, NCIH929.1 cell viability, 96 hr, top concentration 1 μM, 14 points half log titration; read-out: IC50. It counts as cell-based. The source says: Cell Viability Assay for Table 2
CellTiter-Glo® 2.0 Assay was purchased from Promega (Madison, Wis., USA). NCIH929.1 cell line was purchased from ATCC (Manassas, Va., USA). Cell culture flasks and 384-well microplates were acquired from VWR (Radnor, Pa., USA).
For orientation: In ATP-based viability assays light output follows the ATP content of the culture.

As to `O=C1CCC(N2C(=O)c3cccc4c(Cc5cnn(C6CCN(CC7(C(F)(F)F)CC7)CC6)c5)ccc2c34)C(=O)N1` (stereo not shown) [Compound 62, 3-(2-oxo-6-((1-(1-((1-(trifluoromethyl)cyclopropyl)methyl)piperidin-4-yl)-1H-pyrazol-4-yl)methyl)benzo[cd]indol-1(2H)-yl)piperidine-2,6-dione], the half-maximal inhibitory concentration (IC50) was below 1 nM.

As for `CC(C)(C)CN1CCC(n2cc(Cc3ccc4c5c(cccc35)C(=O)N4C3CCC(=O)NC3=O)cn2)CC1` (stereo not shown) [Compound 63, 3-(6-((1-(1-neopentylpiperidin-4-yl)-1H-pyrazol-4-yl)methyl)-2-oxobenzo[cd]indol-1(2H)-yl)piperidine-2,6-dione], the 50% inhibitory concentration (IC50) is below 1 nM.

Regarding `CC1(CN2CCC(n3cc(Cc4ccc5c6c(cccc46)C(=O)N5C4CCC(=O)NC4=O)cn3)CC2)CC1` (stereo not shown) [Compound 64, 3-[6-[[1-[1-[(1-methylcyclopropyl)methyl]-4-piperidyl]pyrazol-4-yl]methyl]-2-oxo-benzo[cd]indol-1-yl]piperidine-2,6-dione], the half-maximal inhibitory concentration (IC50) was below 1 nM.

As to `O=C1CCC(N2C(=O)c3cccc4c(Cc5cnn(C6CCN(CC7(F)CC7)CC6)c5)ccc2c34)C(=O)N1` (stereo not shown) [Compound 65, 3-(6-((1-(1-((1-fluorocyclopropyl)methyl)piperidin-4-yl)-1H-pyrazol-4-yl)methyl)-2-oxobenzo[cd]indol-1(2H)-yl)piperidine-2,6-dione], the IC50 is below 1 nM.

In the case of `COC1(CN2CCC(n3cc(Cc4ccc5c6c(cccc46)C(=O)N5C4CCC(=O)NC4=O)cn3)CC2)CC1` (stereo not shown) [Compound 66, 3-(6-((1-(1-((1-methoxycyclopropyl)methyl)piperidin-4-yl)-1H-pyrazol-4-yl)methyl)-2-oxobenzo[cd]indol-1(2H)-yl)piperidine-2,6-dione], the IC50 is below 1 nM.

For the compound `CC1(n2cc(Cc3ccc4c5c(cccc35)C(=O)N4C3CCC(=O)NC3=O)cn2)CCNCC1` (stereo not shown) [Compound 69, 3-(6-((1-(4-methylpiperidin-4-yl)-1H-pyrazol-4-yl)methyl)-2-oxobenzo[cd]indol-1(2H)-yl)piperidine-2,6-dione hydrochloride], the concentration for half-maximal inhibition (IC50) is below 100 nM.

For the compound `CC1(n2cc(Cc3ccc4c5c(cccc35)C(=O)N4C3CCC(=O)NC3=O)cn2)CCN(C(=O)C23C4C5C6C4C2C6C53)CC1` (stereo not drawn) [Compound 70, 3-(6-((1-(l-(cubane-1-carbonyl)-4-methylpiperidin-4-yl)-1H-pyrazol-4-yl)methyl)-2-oxobenzo[cd]indol-1(2H)-yl)piperidine-2,6-dione], the IC50 was below 1 nM.

Regarding `CC1(n2cc(Cc3ccc4c5c(cccc35)C(=O)N4C3CCC(=O)NC3=O)cn2)CCN(C(=O)C23COC(C2)C3)CC1` (stereo not shown) [Compound 71, 3-(6-{1-[4-Methyl-1-(2-oxa-bicyclo[2.1.1]hexane-4-carbonyl)-piperidin-4-yl]-1H-pyrazol-4-ylmethyl}-2-oxo-2H-benzo[cd]indol-1-yl)-piperidine-2,6-dione], the IC50 is below 1 nM.

On to `CC1(n2cc(Cc3ccc4c5c(cccc35)C(=O)N4C3CCC(=O)NC3=O)cn2)CCN(C(=O)C2(C#N)CCCCC2)CC1` (stereo not shown) [Compound 72, 1-(4-(4-((1-(2,6-dioxopiperidin-3-yl)-2-oxo-1,2-dihydrobenzo[cd]indol-6-yl)methyl)-1H-pyrazol-1-yl)-4-methylpiperidine-1-carbonyl)cyclohexane-1-carbonitrile], for which the IC50 is below 1 nM.

As to `CC1(n2cc(Cc3ccc4c5c(cccc35)C(=O)N4C3CCC(=O)NC3=O)cn2)CCN(C(=O)C23CCN(CC2)CC3)CC1` (stereo not drawn) [Compound 73, 3-(6-((l-(4-methyl-1-(quinuclidine-4-carbonyl)piperidin-4-yl)-1H-pyrazol-4-yl)methyl)-2-oxobenzo[cd]indol-1(2H)-yl)piperidine-2,6-dione], the IC50 was below 100 nM.

For the compound `CC1(n2cc(Cc3ccc4c5c(cccc35)C(=O)N4C3CCC(=O)NC3=O)cn2)CCN(C(=O)C23CCN(CC2)C3)CC1` (stereo not shown) [Compound 74, 3-(6-((1-(1-(1-azabicydo[2.2.1]heptane-4-carbonyl)-4-methylpiperidin-4-yl)-1H-pyrazol-4-yl)methyl)-2-oxobenzo[cd]indol-1(2H)-yl)piperidine-2,6-dione], the half-maximal inhibitory concentration (IC50) is below 100 nM.

As to `CC(=O)N1CCC(C)(n2cc(Cc3ccc4c5c(cccc35)C(=O)N4C3CCC(=O)NC3=O)cn2)CC1` (stereo not shown) [Compound 75, 3-(6-((1-(1-acetyl-4-methylpiperidin-4-yl)-1H-pyrazol-4-yl)methyl)-2-oxobenzo[cd]indol-1(2H)-yl)piperidine-2,6-dione], the concentration for half-maximal inhibition (IC50) was below 1 nM.

On to `CC1(n2cc(Cc3ccc4c5c(cccc35)C(=O)N4C3CCC(=O)NC3=O)cn2)CCN(C(=O)C2(C(F)F)CC2)CC1` (stereo not shown) [Compound 76, 3-(6-((1-(1-(1-(difluoromethyl)cyclopropane-1-carbonyl)-4-methylpiperidin-4-yl)-1H-pyrazol-4-yl)methyl)-2-oxobenzo[cd]indol-1(2H)-yl)piperidine-2,6-dione], for which the IC50 was below 1 nM.

Take `CC1(n2cc(Cc3ccc4c5c(cccc35)C(=O)N4C3CCC(=O)NC3=O)cn2)CCN(C(=O)C2(C(F)(F)F)CC2)CC1` (stereo not shown) [Compound 77, 3-(6-((1-(4-methyl-1-(1-(trifluoromethyl)cyclopropane-1-carbonyl)piperidin-4-yl)-1H-pyrazol-4-yl)methyl)-2-oxobenzo[cd]indol-1(2H)-yl)piperidine-2,6-dione]: the IC50 is below 1 nM.

Consider `CC1(n2cc(Cc3ccc4c5c(cccc35)C(=O)N4C3CCC(=O)NC3=O)cn2)CCN(C(=O)C2(C(F)(F)F)CCC2)CC1` (stereo not shown) [Compound 78, 3-(6-((1-(4-methyl-1-(1-(trifluoromethyl)cyclobutane-1-carbonyl)piperidin-4-yl)-1H-pyrazol-4-yl)methyl)-2-oxobenzo[cd]indol-1(2H)-yl)piperidine-2,6-dione], for which the IC50 was below 1 nM.

In the case of `CC1(n2cc(Cc3ccc4c5c(cccc35)C(=O)N4C3CCC(=O)NC3=O)cn2)CCN(C(=O)C2(C#N)CC2)CC1` (stereo not shown) [Compound 79, 1-(4-(4-((1-(2,6-dioxopiperidin-3-yl)-2-oxo-1,2-dihydrobenzo[cd]indol-6-yl)methyl)-1H-pyrazol-1-yl)-4-methylpiperidine-1-carbonyl)cyclopropane-1-carbonitrile], the IC50 was below 1 nM.

Take `CC(C)(C#N)C(=O)N1CCC(C)(n2cc(Cc3ccc4c5c(cccc35)C(=O)N4C3CCC(=O)NC3=O)cn2)CC1` (stereo not shown) [Compound 80, 3-(4-(4-((1-(2,6-dioxopiperidin-3-yl)-2-oxo-1,2-dihydrobenzo[cd]indol-6-yl)methyl)-1H-pyrazol-1-yl)-4-methylpiperidin-1-yl)-2,2-dimethyl-3-oxopropanenitrile]: the IC50 was below 1 nM.

For `CC1(C(=O)N2CCC(C)(n3cc(Cc4ccc5c6c(cccc46)C(=O)N5C4CCC(=O)NC4=O)cn3)CC2)CCOCC1` (stereo not shown) [Compound 81, 3-(6-((1-(4-methyl-1-(4-methyltetrahydro-2H-pyran-4-carbonyl)piperidin-4-yl)-1H-pyrazol-4-yl)methyl)-2-oxobenzo[cd]indol-1(2H)-yl)piperidine-2,6-dione], the IC50 is below 1 nM.

`CC1(n2cc(Cc3ccc4c5c(cccc35)C(=O)N4C3CCC(=O)NC3=O)cn2)CCN(C(=O)C(C)(C)C(F)(F)F)CC1` (stereo not shown) [Compound 82, 3-(6-((1-(4-methyl-1-(3,3,3-trifluoro-2,2-dimethylpropanoyl)piperidin-4-yl)-1H-pyrazol-4-yl)methyl)-2-oxobenzo[cd]indol-1(2H)-yl)piperidine-2,6-dione]: the IC50 was below 1 nM.

Broadly, the IC50 is the midpoint of a concentration-inhibition curve.
